Test results taken from patent US8389764B2, “Urea and sulfamide derivatives as inhibitors of TAFIa” (Sanofi, priority 2006, dated 2013).
Numbered stars: 1 amine (or outer) side, 2 acyl side, 3 side chain; on linkers, the order of the positions; unused ones are H or OH. Square brackets hold non-standard residues; d marks the D form. Peptide text beside a SMILES is read from it. * marks the point of attachment. aIle = CC[C@@H](C)[C@H](N)C(=O)O; dCha = N[C@H](CC1CCCCC1)C(=O)O; Cbz = O=C(OCc1ccccc1)*; Aib = CC(C)(N)C(=O)O; CO = O=C([*:1])[*:2]

Biological target: T1, TAFIa (Homo sapiens, UniProt Q96IY4)
T1 construct: purchased American Diagnostica 874TAFIA
T1 sequence (Q96IY4 115-423): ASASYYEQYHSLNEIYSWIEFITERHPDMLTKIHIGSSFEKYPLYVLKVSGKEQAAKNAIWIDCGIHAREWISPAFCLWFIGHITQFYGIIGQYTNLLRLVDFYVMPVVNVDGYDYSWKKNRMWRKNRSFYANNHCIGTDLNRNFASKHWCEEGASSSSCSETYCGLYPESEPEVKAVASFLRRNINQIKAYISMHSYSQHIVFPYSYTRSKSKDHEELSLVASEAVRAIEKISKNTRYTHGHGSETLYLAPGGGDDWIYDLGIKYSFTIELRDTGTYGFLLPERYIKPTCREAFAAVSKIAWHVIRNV
Assay: TAFIa inhibition, Actichrome plasma TAFI activity kit (American Diagnostica)
Type: biochemical
Details: 15 min preincubation at room temperature, read at 420 nm, duplicate determination of serial dilutions
Protocol: The enzymic reaction was started by adding 10 μl of TAFIa developer (prediluted 1:2 with assay buffer).
The IC50 values were calculated from the averaged values (duplicate determination) of serial dilutions of the substance with the aid of the Softmax Pro software (version 4.8; Molecular Devices).

`CC(C)[C@H](NC(=O)[C@@H](CCCCNC(=O)OCc1ccccc1)NC(=O)N[C@@H](CCCCN)C(=O)O)C(=O)N[C@@H]1C[C@H]2CC[C@@H]1C2` [Example 114] was tested. Which IC50 did it give?
The IC50 was 0.519 µM.

How did the IC50 turn out when `CC(CNC(=O)[C@@H](CCCCNC(=O)OCc1ccccc1)NC(=O)N[C@@H](CCCCN)C(=O)O)c1ccccc1` (stereo partly drawn) [Example 34] was run?
Its IC50 is 1.08 µM.

How did the IC50 turn out when `CC1(C)[C@@H]2CC[C@@]1(C)C(NC(=O)[C@@H](Cc1ccccc1)NC(=O)N[C@@H](CCCCN)C(=O)O)C2` (stereo partly drawn) [Example 96] was run?
Its IC50 is 0.015 µM.

How did the IC50 turn out when `NCCCC[C@H](NC(=O)N[C@H](CC1CCCCC1)C(=O)NCC12CC3CC(CC(C3)C1)C2)C(=O)O` [Example 78] was run?
Its IC50 is 0.305 µM.

For `NCCCC[C@H](NC(=O)N[C@H](CC1CCCCC1)C(=O)N[C@@H]1CC1c1ccccc1)C(=O)O` (stereo partly drawn) [Example 64], which IC50 is on record?
Its IC50 is 0.757 µM.

With `CC(C)[C@H](NC(=O)[C@@H](CCCCNC(=O)OCc1ccccc1)NC(=O)N[C@@H](CCCCN)C(=O)O)C(=O)NCCCc1ccccc1` [Example 113] as the compound, how does the IC50 read?
The IC50 was 0.747 µM.

For `C[C@H](NC(=O)[C@@H](CCCCNC(=O)OCc1ccccc1)NC(=O)N[C@@H](CCCCN)C(=O)O)c1ccc(Cl)cc1` [Example 44], which IC50 is on record?
The IC50 was 0.144 µM.

For `CC(C)[C@H](NC(=O)[C@@H](CCCCNC(=O)OCc1ccccc1)NC(=O)N[C@@H](CCCCN)C(=O)O)C(=O)NCC(C)(C)C` [Example 121], which IC50 is on record?
Its IC50 is 0.37 µM.

Which IC50 does the source give for `NCCCC[C@H](NC(=O)N[C@H](CC1CCCCC1)C(=O)NCC(c1ccccc1)c1ccccc1)C(=O)O` [Example 28] here?
Its IC50 is 0.118 µM.

`CC1(C)[C@@H]2CC[C@@]1(C)[C@@H](NC(=O)[C@@H](CC1CCCCC1)NC(=O)N[C@@H](CCCNC(=N)N)C(=O)O)C2` [Example 91] was tested. Which IC50 did it give?
Its IC50 is 0.004 µM.

Which IC50 does the source give for `COc1ccc(CNC(=O)[C@@H](CC2CCCCC2)NC(=O)N[C@@H](CCCCN)C(=O)O)cc1` [Example 21] here?
The IC50 was 0.904 µM.

For `CCOC(=O)[C@@H](NC(=O)[C@@H](NC(=O)[C@@H](CCCCNC(=O)OCc1ccccc1)NC(=O)N[C@@H](CCCCN)C(=O)O)C(C)C)C(C)C` [Example 118] ({Lys-CO}-[dK](Cbz)-Val-Val-OEt), which IC50 is on record?
The IC50 was 0.267 µM.

How did the IC50 turn out when `NCCCC[C@H](NC(=O)N[C@H](CC1CCCCC1)C(=O)NC1C2CC3CC(C2)CC1C3)C(=O)O` (stereo partly drawn) [Example 74] was run?
Its IC50 is 0.019 µM.

With `CC1CCCCC1NC(=O)[C@@H](CCCCNC(=O)OCc1ccccc1)NC(=O)N[C@@H](CCCCN)C(=O)O` (stereo partly drawn) [Example 42] as the compound, how does the IC50 read?
Its IC50 is 0.839 µM.

`CC[C@@H](C)[C@H](NC(=O)[C@@H](CC1CCCCC1)NC(=O)N[C@@H](CCCCN)C(=O)O)C(=O)OC` [Example 57] ({Lys-CO}-[dCha]-[aIle]-OMe) was tested. Which IC50 did it give?
Its IC50 is 0.544 µM.

With `C[C@H]1CC[C@H](NC(=O)[C@@H](CC2CCCCC2)NC(=O)N[C@@H](CCCCN)C(=O)O)CC1` [Example 31] as the compound, how does the IC50 read?
Its IC50 is 0.076 µM.

How did the IC50 turn out when `CC1(C)[C@@H]2CC[C@@]1(C)[C@@H](NC(=O)[C@@H](CC1CCCCC1)NC(=O)N[C@@H](CS(=O)(=O)CCN)C(=O)O)C2` [Example 142b] was run?
Its IC50 is 0.006 µM.

Which IC50 does the source give for `CCC[C@@H](NC(=O)N[C@@H](CCCCN)C(=O)O)C(=O)N[C@H]1C[C@H]2CC[C@]1(C)C2(C)C` [Example 103] here?
Its IC50 is 0.015 µM.

How did the IC50 turn out when `CC1(C)[C@@H]2CC[C@@]1(C)C(NC(=O)[C@H](NC(=O)N[C@@H](CCCCN)C(=O)O)C1CCCCC1)C2` (stereo partly drawn) [Example 98] was run?
Its IC50 is 1.04 µM.

For `NCCCC[C@H](NC(=O)N[C@H](CCCCNC(=O)OCc1ccccc1)C(=O)NC1C[C@@H]2CC[C@H]1C2)C(=O)O` (stereo partly drawn) [Example 43], which IC50 is on record?
The IC50 was 0.046 µM.

For `CC1(C)[C@@H]2CC[C@@]1(C)[C@@H](NC(=O)[C@@H](CC1CCCCC1)NC(=O)N[C@@H](CCCN)C(=O)O)C2` [Example 124], which IC50 is on record?
The IC50 was 0.018 µM.

Which IC50 does the source give for `CC(C)[C@H](NC(=O)[C@@H](CCCCNC(=O)OCc1ccccc1)NC(=O)N[C@@H](CCCCN)C(=O)O)C(=O)NCc1ccc(Cl)cc1` [Example 129] here?
The IC50 was 0.608 µM.

With `CC(C)C[C@@H](NC(=O)N[C@@H](CCCCN)C(=O)O)C(=O)NC1C[C@H]2CC[C@]1(C)C2(C)C` (stereo partly drawn) [Example 99] as the compound, how does the IC50 read?
Its IC50 is 0.057 µM.

With `COC(=O)C(C)(C)NC(=O)[C@@H](CCCCNC(=O)OCc1ccccc1)NC(=O)N[C@@H](CCCCN)C(=O)O` [Example 25] ({Lys-CO}-[dK](Cbz)-[Aib]-OMe) as the compound, how does the IC50 read?
The IC50 was 0.463 µM.
